Values quoted from earlier work, collected in US9259392B2, “Cochleate compositions directed against expression of proteins” (Rutgers, The State University of New Jersey, priority 2003, dated 2016).

Legend:
pathogenic fungi = settings: cited from earlier work
[1] = molecular target: Aspergillus fumigatus H^+-ATPase; settings: cited from earlier work

SMILES	antifungal activity (pathogenic fungi)	IC50 [1] [nM]
CCN1CCC(O)(C=Cc2ccc(Cl)cc2)C(C(=O)C=Cc2ccc(Cl)cc2)C1.Cl (centres unmarked) [NC1175, 3-[3-(4-chlorophenyl)-2-propenoyl]-4-[2-(4-chlorophenyl)vinylene]-1-ethyl-4-piperidinol hydrochloride]	antifungal activity against a wide spectrum of pathogenic fungi	
[O]=[V]([OH])([OH])[OH] [orthovanadate]		~800
